Results: a melting point compilation (Tetko et al.; mined from patent text by program, amines drawn as free bases though some values may be those of a salt)

First: CCCc1nc(C(O)C(C)(C)C)c(C(=O)O)n1Cc1ccc(-c2ccccc2C(=O)OC(C)(C)C)cc1 (configuration not stated)
Second: COC(=O)c1ccc(CC(C)(C)NCC(O)c2cc3ccccc3o2)cc1 (configuration not stated)
The melting point of the first is higher: 207 °C for the first, 127 to 129 °C for the second.

Compared with `CC(C)CC(=O)NCc1ccc(NC(=O)/C=C/c2cnn(C)c2-c2ccc(F)cc2)cc1`, `CC(C)n1c(CC[C@@H](O)C[C@@H](O)CC(=O)O)c(-c2ccc(F)cc2)c(-c2ccc(F)cc2)c1C(=O)NCc1ccc(C(=O)O)cc1` is lower in melting point: 226 to 227 °C for the first, 140 to 142 °C for the second.

First: O=C1c2ccccc2CCC1CN1CCC(O)(c2ccc(Cl)cc2)CC1 (configuration not stated)
Second: CNC(=NS(=O)(=O)N1CCCCC1)N1CC(c2ccccc2)C(c2ccc(Cl)cc2)=N1 (configuration not stated)
The melting point of the first is higher: 227 to 228 °C for the first, 175 to 177 °C for the second.

Compared with `Fc1c(Cl)cccc1Br`, `Fc1cccc2sc(S)nc12` is higher in melting point: 43 °C for the first, 180 °C for the second.

First: O=C(O)c1ccc(C(c2ccc(C(=O)O)c(C(=O)O)c2)(C(F)(F)F)C(F)(F)F)cc1C(=O)O
Second: O=C(N(CCN(C(=O)C(F)(F)F)c1cccc2[nH]cc(Cl)c12)Cc1ccccc1)C(F)(F)F
The melting point of the first is higher: 231 to 234 °C for the first, 139 to 142 °C for the second.

First: c1ccc2nc(COc3ccc4[nH]ccc4c3)ccc2c1
Second: COc1ccc2cccc(CCOS(=O)(=O)c3ccccc3)c2c1
The melting point of the first is higher: 134 to 137 °C for the first, 61.8 to 63 °C for the second.

First: Cc1ccc(Sc2c(O)c3ccc(Cl)cc3[nH]c2=O)cc1
Second: Cc1ccc(-c2cc(-c3ccccc3)n[nH]2)cc1
The melting point of the first is higher: 245 to 246 °C for the first, 175 °C for the second.

Compared with `COC(=O)CCc1cc2c(s1)-n1c(C)nnc1C(C)N=C2c1ccccc1Cl` (configuration not stated), `CCn1ncc2nc(C(N)=O)c(-c3ccccc3)nc21` is higher in melting point: 131 to 132 °C for the first, 189 to 190 °C for the second.

First: O=c1[nH]c2ccc3c(c2o1)OC(CN1CC=C(c2c[nH]c4ccccc24)CC1)CO3 (configuration not stated)
Second: c1cnc2ccc(Cn3nnc4ccc(-c5ccc6c(c5)CCO6)nc43)cc2c1
The melting point of the first is higher: 202 °C for the first, 131 to 133 °C for the second.

First: COc1c(Cl)ccc(-c2cc(N)c(Cl)c(C(=O)NOC3C=CCCC3)n2)c1F (configuration not stated)
Second: Nc1ncc2cc(-c3c(Cl)ccc(Cl)c3Cl)c(N)nc2n1
The melting point of the first is lower: 180 to 182 °C for the first, 320 to 322 °C for the second.

Compared with `CCOC(=O)/C=C/c1ccc(OCCC2OCCO2)cc1Oc1ncc(C(F)(F)F)cc1Cl`, `CCOC(=O)C(Cc1ccc(OCCN2CCC(C)(C)c3cc(C(=NOC)c4ccccc4)ccc32)cc1)OCC(F)(F)F` (configuration not stated) is lower in melting point: 102 to 103 °C for the first, 58 to 60 °C for the second.

`Oc1cccc(-c2ocnc2-c2onc(-c3ccccc3)c2-c2ccccc2)c1` and `COc1ccc(-c2ccncc2)cc1-c1cccc(Oc2ccccc2)c1` cannot be ordered by melting point: 199 to 200 °C for the first, 184 to 204 °C for the second.

First: Cc1ccccc1C(=S)NC(=O)Nc1ccc(Cl)cc1
Second: NS(=O)(=O)c1ccc(NC(=O)Nc2ccc(I)cc2)cc1
The melting point of the first is lower: 211 °C for the first, 275 to 277 °C for the second.

First: CCN(CC)c1cccc2nc3n(c12)CC(F)(F)CN3c1ccc(Cl)cc1Cl
Second: Cn1nc(-c2ccc(Cl)cc2Cl)cc1O
The melting point of the first is lower: 125 to 127 °C for the first, 128 °C for the second.

Compared with `CC(OC(=O)C1N2C(=O)C(NC(=O)Cc3ccccc3)C2S(=O)C1(C)C)C1CC1` (configuration not stated), `CC(=O)O[C@@H]1OCC[C@@H]1NC(=O)[C@H](CC(C)C)NC(=O)c1ccc(N)cc1` is lower in melting point: 158 to 159 °C for the first, 148 to 150 °C for the second.

Compared with `CCNC(=O)N(NC(=O)c1cccc(Cl)c1)C(C)(C)C`, `COCc1cc(C(=O)NC(C)(C)C)c(C(=O)OC)cn1` is higher in melting point: 67 to 68 °C for the first, 138 to 142 °C for the second.

First: O=C(NCCCc1ccncc1)N1CCc2ccccc2C1
Second: CCOC(=O)CCNC(=O)CN1CCOc2ccc(NC(=O)NCc3ccccc3)cc2C1=O
The melting point of the first is higher: 76 to 79 °C for the first, 70 to 75 °C for the second.

First: CSc1nn2c(N)cc(C)nc2c1S(=O)(=O)c1ccc(Cl)cc1
Second: CCNc1ccc(S(=O)(=O)Nc2onc(C)c2C)cc1
The melting point of the first is higher: over 230 °C for the first, 123 °C for the second.

Compared with `NS(=O)(=O)c1ccccc1CCC(F)(F)F`, `CCOC(=O)c1nn(C)c(-c2ccccc2)c1S(N)(=O)=O` is lower in melting point: 148 to 149 °C for the first, 141 to 144 °C for the second.

Compared with `CCCCOc1nccnc1C1(O)CN2CCC1CC2` (configuration not stated), `Cc1nccn1CCCCC(=O)NCc1ccc(Cl)cc1` is lower in melting point: 107 to 108 °C for the first, 72 to 75 °C for the second.

First: CCOC(=O)c1ccc(OC(F)F)cc1S(=O)(=O)NC(=O)Nc1nc(OC)cc(OC)n1
Second: COc1nc(C)nc(NC(=O)NS(=O)(=O)c2cccnc2Oc2ccccc2)n1
The melting point of the first is lower: 146 to 149 °C for the first, 176 to 178 °C for the second.

First: Cc1cc(-c2ccc3nnn(Cc4ccc5ncccc5c4)c3n2)ccc1C(N)=O
Second: O=C(Nc1ccc2cc(CN3CCCCC3)ccc2c1)c1ccc(-c2ccc(Cl)cc2)cc1
The melting point of the first is higher: 235 to 237 °C for the first, 220 to 222 °C for the second.

First: OC(CCNC1=NCCCN1)c1ccccc1 (configuration not stated)
Second: COC(=O)Cc1ccccc1OCc1ccccc1
The melting point of the first is higher: 130 to 135 °C for the first, 74 to 75 °C for the second.

First: CC(C)CC(NC(c1ccc(-c2ccc(S(C)(=O)=O)cc2)cc1)C(F)(F)F)C(=O)NCC#N (configuration not stated)
Second: C=C(CC(=O)O)c1ccc(-c2ccc(F)cc2F)cc1
The melting point of the first is higher: 140 °C for the first, 109 to 110 °C for the second.

First: COC(=O)c1ccc(-c2ccc(-c3ccccc3)c(-c3ccc4c(c3)C(C)(C)CCC4(C)C)c2)cc1O
Second: COC(=O)C1Oc2ccc(Oc3ccc(Cl)cc3)cc2C(C)(c2ccccc2)O1 (configuration not stated)
The melting point of the first is higher: 134 to 136 °C for the first, 100 °C for the second.

First: COC(=O)C1=C(C)NC(C)=C(C(=O)OCCc2cc(C)[nH]c2C)C1c1cccc([N+](=O)[O-])c1 (configuration not stated)
Second: COc1ccc(S(=O)(=O)N(CCNC(=O)NCc2ccccc2)c2ccc(C)cc2Cc2c(F)cccc2F)cc1OC
The melting point of the first is higher: 156 to 160 °C for the first, 100 °C for the second.

First: COC(=O)C=Cc1cc([N+](=O)[O-])ccc1Cl
Second: CC(=O)C=Cc1ccc(Cl)cc1Cl
The melting point of the first is higher: 159 to 162 °C for the first, 79 to 80 °C for the second.

First: c1ccc(-c2cn3ccsc3n2)cc1
Second: CN1C(=O)[C@H](NC(=O)/C=C/c2ccc(F)cc2F)N=C(c2ccccc2)c2ccccc21
The melting point of the first is higher: 143 to 144 °C for the first, 121 to 123 °C for the second.

First: CC1(C)C(=O)Nc2cc(O)c([N+](=O)[O-])cc21
Second: CCOC(=O)C1=COc2cc(C(C)(C)C)c(O)cc2O1
The melting point of the first is higher: 244 to 247 °C for the first, 222 °C for the second.

First: CCOC(=O)c1c(O)c2cc(C)ccc2n(C)c1=O
Second: CCn1c(=O)c2cc(C(=O)O)cn2c2ccccc21
The melting point of the first is lower: 132 °C for the first, 314 to 316 °C for the second.

First: NNC(=O)c1cc2c(s1)-c1ccccc1OC2c1ccccc1 (configuration not stated)
Second: CSc1ccc(C(=O)NC[C@H]2O[C@@H]2c2ccccc2)cc1 (racemic)
The melting point of the first is higher: 238 to 239 °C for the first, 110 °C for the second.

`Cn1cc(-c2cccc(F)c2)c(=O)c(-c2cccc(Cl)c2)c1` and `COc1cccc2oc(Cn3nc(-c4ccc(OC(C)C)c(F)c4)c4c(N)ncnc43)c(-c3cccc(F)c3)c(=O)c12` cannot be ordered by melting point: 145 to 146 °C for the first, 145 to 148 °C for the second.

First: Cc1cn(-c2cc(N)cc(C(F)(F)F)c2)cn1
Second: C#CCOc1cc(-n2c(OC)nc(C(F)(F)F)cc2=O)c(F)cc1Cl
The melting point of the first is higher: 123 to 124 °C for the first, 108 to 110 °C for the second.

First: COC(=O)NNC(=O)CCCl
Second: CCC(=O)C(CC)=NNc1ccccc1[N+](=O)[O-]
The melting point of the first is higher: 129 °C for the first, 96 to 97 °C for the second.

First: Cc1cn(C2=CCC(O)CC2)c(=O)[nH]c1=O (racemic)
Second: O=C(NCCC1CC2CCC1C2)n1cc(F)c(=O)[nH]c1=O (configuration not stated)
The melting point of the first is higher: 223 °C for the first, 128 to 130 °C for the second.

First: COc1ccc(CN2CC(=O)Nc3ccc(OC)cc3C2=O)c(OC)c1
Second: CC(C)(C)c1ccc(C(=O)NCc2ccc3c(c2)C(=O)N(C2CCC(=O)NC2=O)C3=O)cc1 (configuration not stated)
The melting point of the first is higher: 196 °C for the first, 164 to 166 °C for the second.

Compared with `CNc1cc(CC2(C)CC3C(=C(C)C(C)=C(N)C3C)O2)ccc1-c1ccn[nH]1` (configuration not stated), `Cc1c(C)c2c(c(C)c1NC(=O)CC(C)(C)C)C(c1ccc(C(C)(C)O)cc1)CO2` (configuration not stated) is higher in melting point: 113 to 117 °C for the first, 132 to 134 °C for the second.

First: CN1C(C)(C)CC2(CC1(C)C)NC(=O)N(CC(O)COC(=O)CCCCC(=O)OCC(O)CN1C(=O)NC3(CC(C)(C)N(C)C(C)(C)C3)C1=O)C2=O (configuration not stated)
Second: CCC(=O)OCC1(C)OCC2(CO1)COC(C)(COC(=O)CC)OC2 (configuration not stated)
The melting point of the first is higher: 180 to 184 °C for the first, 55 to 56 °C for the second.

First: CC(=O)c1ccc(NS(=O)(=O)c2sc3ccc(Cl)cc3c2C)c(S(C)(=O)=O)c1
Second: Cc1ccc(Cl)c(-c2ccc(S(=O)(=O)N3c4ccccc4CC3C(=O)NCCOc3ccc(CC(=O)O)cc3)cc2)c1 (configuration not stated)
The melting point of the first is higher: 207 to 209 °C for the first, 77 to 81 °C for the second.

First: Nc1ccc(Cn2cnnn2)cc1
Second: CCOC(=O)C(=C(c1ccc(F)cc1)c1ccc(F)cc1)n1nnnc1-c1ccccc1
The melting point of the first is lower: 138 to 140 °C for the first, 149 to 150 °C for the second.

First: CCc1ccc(NC(=O)Nc2ccc(Oc3ccnc(OC)c3)cc2)cc1
Second: O=C(N[C@@H](Cc1ccc(-c2c(O)cccc2O)cc1)C(=O)O)c1c(Cl)cccc1Cl
The melting point of the first is lower: 196 °C for the first, 238 °C for the second.

Compared with `O=C(CC12CC3CC(CC(C3)C1)C2)Nc1c(Cl)ccc2nc(N3CCNCC3)ccc12`, `COc1ccccc1N1CCN(CCn2cnc3sc4c(c3c2=O)CCNC4)CC1` is lower in melting point: 280 to 283 °C for the first, 168 to 170 °C for the second.

Compared with `CN(C)c1ccc(NC(=O)N(C[C@H]2CC[C@@H](CN(C(=O)Nc3ccc(N(C)C)cc3)C3CCCCCCC3)CC2)C2CCCCCCC2)cc1`, `Cc1nc(-c2ccc(N3CC(CN4CCN(C(CC(=O)OCc5ccccc5)C(=O)OCc5ccccc5)CC4)OC3=O)cc2)no1` (configuration not stated) is lower in melting point: 197 to 200 °C for the first, 119 °C for the second.

First: CS(=O)c1cc(=O)c2ccc(N3CCOCC3)cc2s1 (configuration not stated)
Second: COC(=O)Cn1c(SCc2nccc(SCCN3CCOCC3)c2C)nc2ccccc21
The melting point of the first is higher: 198 to 200 °C for the first, 128 to 129 °C for the second.

Compared with `OCc1cc(F)cc(Br)c1`, `CC(C)(C)NC(=S)Nc1cc(F)cc(Cl)c1` is higher in melting point: 41 to 43 °C for the first, 135 to 137 °C for the second.

First: CC(=O)OC1CSC(Oc2ccnc(-c3ccc(F)cc3C)c2)C(OC(C)=O)C1OC(C)=O (configuration not stated)
Second: O=C(O)C1=CCN(c2ncccc2F)CC1
The melting point of the first is higher: 137 °C for the first, 119 to 120 °C for the second.

First: O=S(=O)(c1nc[nH]n1)C(F)(F)Br
Second: OCc1c(Cl)cncc1Cl
The melting point of the first is higher: 176 to 177 °C for the first, 87 to 88 °C for the second.

First: CCCCCCCCCCC1(CCCCCCCCCC)c2cc(C=O)ccc2-c2ccc(N(c3ccccc3)c3ccccc3)cc21
Second: CC(C)CN1CN(C)CN(c2c(Cl)cccc2Cl)C1=S
The melting point of the first is lower: 77 to 78.5 °C for the first, 133 to 135 °C for the second.

`CC1CC(C)CC2(C1)OC(N)=NC2=O` (configuration not stated) gave a melting point of 276 to 281 °C.
